Where two headings read alike, the source gives them in different places.
Tests used:
RA sera [1] = settings: 159/279 RA sera; specificity level of 98.6% using 213 disease control sera; cited from earlier work
RA sera [2] = settings: cited from earlier work
[3] = test system: anti-filaggrin antibodies in human sera; experiment: Western blotting using natural filaggrin; type: binding
Method: Natural filaggrin was purified from human skin obtained freshly after abdominoplasty according to the protocol of Simon et al. (1993). The amount of protein was determined by the Bradford protein assay as modified by Peterson (1983) using BSA standard curves. The crude filaggrin preparation was subjected to 15% Laemmli SDS-PAGE using the Bio-Rad mini-gel apparatus. Two-μg protein/cm was loaded in a large slot and electrophoresed under standard conditions. The gel was subsequently electroblotted onto nitrocellulose membrane in 10% methanol, 10 mM CAPS, pH 11.0 during 40 min. The blot was blocked in PBS, 0.05% Tween20, 1% gelatin and cut into 3 mm strips, which were probed with human sera overnight at a 1/100 dilution in PBS, 0.05% Tween20, 0.1% gelatin. As a secondary antibody the anti-human IgG-AP conjugate (Sigma, St Louis, […]) was added at a 1/1000 dilution; visualisation occurred with the NBT/BCIP chromogenic substrate.

[4] = test system: RA specific autoantibodies in human sera; experiment: LIA comparison of synthetic peptides with existing peptides and citrullinated recombinant filaggrin (Example 3); type: binding; settings: 212 established RA sera, 153 disease control sera (table title: 225 and 154); ROC analysis
Method: Streptavidin-complexed peptides were applied directly on a nylon membrane with a plastic backing. Blocked strips were incubated during 1 hour with human sera diluted 1/100 in 1 ml PBS, 0.5% caseine, 0.1% Triton X705, 10 mM MgCl2.6H2O. After washing with PBS, 0.05% Tween20, goat anti-human IgG-AP conjugate (Promega) diluted in PBS, 0.1% caseine, 0.2% Triton X705 was added for 30 min. Strips were developed in 100 mM NaCl, 100 mM Tris-HCl, pH 9.8, 50 mM MgCl2.6H2O substrate buffer containing the chromogenic substrate NBT/BCIP. Reaction was stopped after 30 min by addition of 0.2 N H2SO4. Air-dried strips were scanned using a HP Scanjet 5P scanner and an in-house LIA interpretation software program.
Recombinant human filaggrin was expressed in E. coli and purified by Ni-IMAC chromatography. Citrullination was performed as described by Senshu et al. (1995) using peptidylarginine deiminase (Sigma) at a 1/120 enzyme/substrate ratio during 4h at 37° C.
Three synthetic peptides (IGP1475, 1477 and 1564) described by Girbal-Neuhauser (1999) (patent application WO 99/35167) and the cyclic peptide IGP1546 described in the patent application WO 98/22503, were synthesised and used for comparison with IGP1611, 1646, 1650 and 1651 on LIA.
On the same strips, also citrullinated recombinant E. coli filaggrin was applied. […]

[5] = test system: anti-filaggrin autoantibodies; settings: cited from earlier work

## natural filaggrin: Natural filaggrin purified from human skin (crude filaggrin preparation); in b6 isolated from human epidermis
RA sera [1]
  RA sera showing positive reaction on Western blot: 37%
RA sera [2]; 55 RA sera
  RA sera detected in ELISA: 47%
RA sera [2]; healthy controls
  healthy controls showing positivity in ELISA: 1%
[3]; 47 sera from patients with early disease (less than 12 months of symptoms)
  sensitivity of Western blot: 25%
[3]; 153 disease controls
  specificity of Western blot system: 94%
[3]; 212 longstanding RA sera
  sensitivity of Western blot: 41%

## Citr. rec. filaggrin: Recombinant human filaggrin expressed in E. coli, citrullinated using peptidylarginine deiminase
[4]
  Sensitivity at 98% spec. level: 32%

## recombinant human filaggrin: recombinant human filaggrin, in vitro deiminated by PAD or non-citrullinated (Girbal-Neuhauser et al., 1999)
[5]; after in vitro deimination by peptidylarginine deiminase (PAD)
  reactivity with human RA sera in ELISA: reactive
[5]; non-citrullinated protein
  reactivity with human RA sera in ELISA: unreactive

Source: patent publication US20020143143A1, “Peptides designed for the diagnosis and treatment of rheumatoid arthritis” (priority 1999, published 2002)
